{
  "source": "the supplement of paper PMC10307832",
  "test_in_all_cases": "relative viability (nuclei count vs DMSO), 5 days (fraction); higher = more cells survive",
  "key": {"Alisertib": {"compound": "COc1cc(Nc2ncc3c(n2)-c2ccc(Cl)cc2C(c2c(F)cccc2OC)=NC3)ccc1C(=O)O [Alisertib]", "outline": "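Viability here means nuclei in treated wells divided by nuclei in vehicle wells, reported as the median across plates. Only plates with control CV below 25% and at least one doubling passed. Lung cancer cell lines in 1536-well plates were exposed to five √10-spaced library-drug doses for 5 days and counted from 4× Hoechst images in MetaXpress.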"}, "Alisertib + Bortezomib": {"compound": "COc1cc(Nc2ncc3c(n2)-c2ccc(Cl)cc2C(c2c(F)cccc2OC)=NC3)ccc1C(=O)O [Alisertib] + CC(C)C[C@H](NC(=O)[C@H](Cc1ccccc1)NC(=O)c1cnccn1)B(O)O [Bortezomib] (partner 0.002 µM)", "outline": "(§1)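 Lung cancer cell lines in 1536-well plates were dosed by pin tool the day after seeding, either with one drug alone or with a fixed anchor-drug dose plus five library-drug doses (not always all listed) in √10 steps. After 5 days, cells were fixed and their nuclei stained in one step (final 0.05% Triton X-100, 1% formaldehyde, 1 ug/ml Hoechst), then counted on 4× images. Relative viability is the nuclei count in treated wells divided by that in vehicle wells. Values are medians of duplicate plates.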"}, "Alisertib + Navitoclax": {"compound": "COc1cc(Nc2ncc3c(n2)-c2ccc(Cl)cc2C(c2c(F)cccc2OC)=NC3)ccc1C(=O)O [Alisertib] + CC1(C)CCC(c2ccc(Cl)cc2)=C(CN2CCN(c3ccc(C(=O)NS(=O)(=O)c4ccc(N[C@H](CCN5CCOCC5)CSc5ccccc5)c(S(=O)(=O)C(F)(F)F)c4)cc3)CC2)C1 [Navitoclax] (partner 0.5 µM)", "outline": "as §1"}, "Alisertib + Foretinib": {"compound": "COc1cc(Nc2ncc3c(n2)-c2ccc(Cl)cc2C(c2c(F)cccc2OC)=NC3)ccc1C(=O)O [Alisertib] + COc1cc2c(Oc3ccc(NC(=O)C4(C(=O)Nc5ccc(F)cc5)CC4)cc3F)ccnc2cc1OCCCN1CCOCC1 [Foretinib] (partner 0.25 µM)", "outline": "as §1"}, "Alisertib + Lapatinib": {"compound": "COc1cc(Nc2ncc3c(n2)-c2ccc(Cl)cc2C(c2c(F)cccc2OC)=NC3)ccc1C(=O)O [Alisertib] + CS(=O)(=O)CCNCc1ccc(-c2ccc3ncnc(Nc4ccc(OCc5cccc(F)c5)c(Cl)c4)c3c2)o1 [Lapatinib] (partner 2 µM)", "outline": "as §1"}, "Alisertib + Pictilisib": {"compound": "COc1cc(Nc2ncc3c(n2)-c2ccc(Cl)cc2C(c2c(F)cccc2OC)=NC3)ccc1C(=O)O [Alisertib] + CS(=O)(=O)N1CCN(Cc2cc3nc(-c4cccc5[nH]ncc45)nc(N4CCOCC4)c3s2)CC1 [Pictilisib] (partner 1 µM)", "outline": "as §1"}, "Alisertib + Crizotinib": {"compound": "COc1cc(Nc2ncc3c(n2)-c2ccc(Cl)cc2C(c2c(F)cccc2OC)=NC3)ccc1C(=O)O [Alisertib] + C[C@@H](Oc1cc(-c2cnn(C3CCNCC3)c2)cnc1N)c1c(Cl)ccc(F)c1Cl [Crizotinib] (partner 1 µM)", "outline": "as §1"}, "Alisertib + Linsitinib": {"compound": "COc1cc(Nc2ncc3c(n2)-c2ccc(Cl)cc2C(c2c(F)cccc2OC)=NC3)ccc1C(=O)O [Alisertib] + C[C@]1(O)C[C@@H](c2nc(-c3ccc4ccc(-c5ccccc5)nc4c3)c3c(N)nccn32)C1 [Linsitinib] (partner 1 µM)", "outline": "as §1"}, "Alisertib + Alpelisib": {"compound": "COc1cc(Nc2ncc3c(n2)-c2ccc(Cl)cc2C(c2c(F)cccc2OC)=NC3)ccc1C(=O)O [Alisertib] + Cc1nc(NC(=O)N2CCC[C@H]2C(N)=O)sc1-c1ccnc(C(C)(C)C(F)(F)F)c1 [Alpelisib] (partner 2 µM)", "outline": "as §1"}, "Alisertib + Olaparib": {"compound": "COc1cc(Nc2ncc3c(n2)-c2ccc(Cl)cc2C(c2c(F)cccc2OC)=NC3)ccc1C(=O)O [Alisertib] + O=C(c1cc(Cc2n[nH]c(=O)c3ccccc23)ccc1F)N1CCN(C(=O)C2CC2)CC1 [Olaparib] (partner 8 µM)", "outline": "as §1"}},
  "data": [
    {"cell line": "NCI-H1299", "values": [
      {"measurement": "relative viability", "setting": "Alisertib; 0.005 µM", "value": 0.992},
      {"measurement": "relative viability", "setting": "Alisertib; 0.01581 µM", "value": 0.963},
      {"measurement": "relative viability", "setting": "Alisertib; 0.05 µM", "value": 0.585},
      {"measurement": "relative viability", "setting": "Alisertib; 0.1581 µM", "value": 0.415},
      {"measurement": "relative viability", "setting": "Alisertib; 0.5 µM", "value": 0.233},
      {"measurement": "relative viability", "setting": "Alisertib + Bortezomib; first compound 0.005 µM", "value": 0.995},
      {"measurement": "relative viability", "setting": "Alisertib + Bortezomib; first compound 0.01581 µM", "value": 0.983},
      {"measurement": "relative viability", "setting": "Alisertib + Bortezomib; first compound 0.05 µM", "value": 0.674},
      {"measurement": "relative viability", "setting": "Alisertib + Bortezomib; first compound 0.1581 µM", "value": 0.457},
      {"measurement": "relative viability", "setting": "Alisertib + Bortezomib; first compound 0.5 µM", "value": 0.286},
      {"measurement": "relative viability", "setting": "Alisertib + Navitoclax; first compound 0.005 µM", "value": 1.03},
      {"measurement": "relative viability", "setting": "Alisertib + Navitoclax; first compound 0.01581 µM", "value": 1.01},
      {"measurement": "relative viability", "setting": "Alisertib + Navitoclax; first compound 0.05 µM", "value": 0.801},
      {"measurement": "relative viability", "setting": "Alisertib + Navitoclax; first compound 0.1581 µM", "value": 0.395},
      {"measurement": "relative viability", "setting": "Alisertib + Navitoclax; first compound 0.5 µM", "value": 0.204},
      {"measurement": "relative viability", "setting": "Alisertib + Foretinib; first compound 0.005 µM", "value": 1.05},
      {"measurement": "relative viability", "setting": "Alisertib + Foretinib; first compound 0.01581 µM", "value": 1.05},
      {"measurement": "relative viability", "setting": "Alisertib + Foretinib; first compound 0.05 µM", "value": 0.665},
      {"measurement": "relative viability", "setting": "Alisertib + Foretinib; first compound 0.1581 µM", "value": 0.333},
      {"measurement": "relative viability", "setting": "Alisertib + Foretinib; first compound 0.5 µM", "value": 0.192},
      {"measurement": "relative viability", "setting": "Alisertib + Lapatinib; first compound 0.005 µM", "value": 0.939},
      {"measurement": "relative viability", "setting": "Alisertib + Lapatinib; first compound 0.01581 µM", "value": 0.904},
      {"measurement": "relative viability", "setting": "Alisertib + Lapatinib; first compound 0.05 µM", "value": 0.586},
      {"measurement": "relative viability", "setting": "Alisertib + Lapatinib; first compound 0.1581 µM", "value": 0.452},
      {"measurement": "relative viability", "setting": "Alisertib + Lapatinib; first compound 0.5 µM", "value": 0.295},
      {"measurement": "relative viability", "setting": "Alisertib + Pictilisib; first compound 0.005 µM", "value": 0.753},
      {"measurement": "relative viability", "setting": "Alisertib + Pictilisib; first compound 0.01581 µM", "value": 0.698},
      {"measurement": "relative viability", "setting": "Alisertib + Pictilisib; first compound 0.05 µM", "value": 0.187},
      {"measurement": "relative viability", "setting": "Alisertib + Pictilisib; first compound 0.1581 µM", "value": 0.179},
      {"measurement": "relative viability", "setting": "Alisertib + Pictilisib; first compound 0.5 µM", "value": 0.0871},
      {"measurement": "relative viability", "setting": "Alisertib + Crizotinib; first compound 0.005 µM", "value": 0.965},
      {"measurement": "relative viability", "setting": "Alisertib + Crizotinib; first compound 0.01581 µM", "value": 0.727},
      {"measurement": "relative viability", "setting": "Alisertib + Crizotinib; first compound 0.05 µM", "value": 0.671},
      {"measurement": "relative viability", "setting": "Alisertib + Crizotinib; first compound 0.1581 µM", "value": 0.348},
      {"measurement": "relative viability", "setting": "Alisertib + Crizotinib; first compound 0.5 µM", "value": 0.252},
      {"measurement": "relative viability", "setting": "Alisertib + Linsitinib; first compound 0.005 µM", "value": 0.936},
      {"measurement": "relative viability", "setting": "Alisertib + Linsitinib; first compound 0.01581 µM", "value": 0.932},
      {"measurement": "relative viability", "setting": "Alisertib + Linsitinib; first compound 0.05 µM", "value": 0.71},
      {"measurement": "relative viability", "setting": "Alisertib + Linsitinib; first compound 0.1581 µM", "value": 0.271},
      {"measurement": "relative viability", "setting": "Alisertib + Linsitinib; first compound 0.5 µM", "value": 0.189},
      {"measurement": "relative viability", "setting": "Alisertib + Alpelisib; first compound 0.005 µM", "value": 1.06},
      {"measurement": "relative viability", "setting": "Alisertib + Alpelisib; first compound 0.01581 µM", "value": 1},
      {"measurement": "relative viability", "setting": "Alisertib + Alpelisib; first compound 0.05 µM", "value": 0.815},
      {"measurement": "relative viability", "setting": "Alisertib + Alpelisib; first compound 0.1581 µM", "value": 0.522},
      {"measurement": "relative viability", "setting": "Alisertib + Alpelisib; first compound 0.5 µM", "value": 0.279},
      {"measurement": "relative viability", "setting": "Alisertib + Olaparib; first compound 0.005 µM", "value": 0.931},
      {"measurement": "relative viability", "setting": "Alisertib + Olaparib; first compound 0.01581 µM", "value": 0.877},
      {"measurement": "relative viability", "setting": "Alisertib + Olaparib; first compound 0.05 µM", "value": 0.582},
      {"measurement": "relative viability", "setting": "Alisertib + Olaparib; first compound 0.1581 µM", "value": 0.396},
      {"measurement": "relative viability", "setting": "Alisertib + Olaparib; first compound 0.5 µM", "value": 0.193}
    ]}
  ]
}
